Measured values from paper PMC10757563 (Nature chemical biology, 2023).

Tested on: ribosome
Assay: Toeprinting analysis of ribosome arrest during in vitro translation
Type: biochemical
Conditions: model yrbA-fs15 ORF with UAG stop codon; 50 μM

## C=C[C@]1(C)C[C@@H](OC(=O)CS[C@@H]2C[C@H]3CC[C@@H](C2)N3C)[C@]2(C)[C@H](C)CC[C@]3(CCC(=O)[C@H]32)[C@@H](C)[C@@H]1O [retapamulin]
  ribosome arrest site (toeprint): ribosomes arrested at the start codon
